Experimental findings from ChEMBL document CHEMBL5465560, “Selectivity Literature for EUbOPEN Chemogenomic Library” (2024) are described below.

Assay [1] has as its target T1, Protein kinase C iota type (Homo sapiens) (UniProt P41743).
T1 sequence (whole entry): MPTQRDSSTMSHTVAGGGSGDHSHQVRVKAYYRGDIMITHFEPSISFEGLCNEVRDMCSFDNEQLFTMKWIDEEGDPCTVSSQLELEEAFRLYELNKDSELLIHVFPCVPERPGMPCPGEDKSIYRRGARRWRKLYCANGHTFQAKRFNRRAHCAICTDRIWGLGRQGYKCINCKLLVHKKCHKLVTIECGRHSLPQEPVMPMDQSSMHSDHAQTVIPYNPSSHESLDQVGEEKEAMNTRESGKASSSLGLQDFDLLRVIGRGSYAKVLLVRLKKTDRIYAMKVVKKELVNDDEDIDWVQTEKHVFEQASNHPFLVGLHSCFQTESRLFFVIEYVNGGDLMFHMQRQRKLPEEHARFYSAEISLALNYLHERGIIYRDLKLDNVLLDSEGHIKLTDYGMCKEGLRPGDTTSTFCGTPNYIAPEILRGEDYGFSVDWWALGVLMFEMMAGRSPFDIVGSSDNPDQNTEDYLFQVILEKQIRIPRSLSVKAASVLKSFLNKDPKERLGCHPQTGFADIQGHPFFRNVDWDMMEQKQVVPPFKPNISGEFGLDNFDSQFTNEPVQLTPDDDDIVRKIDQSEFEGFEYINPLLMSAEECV
The assay is described as follows: Selectivity interaction (ActivX KiNativ screen (kinase selectivity in THP-1 cell lysates)) EUB0000639a PRKCI. The class given is subcellular. The following applies: lysate, at 0.2 µM.

The target of assay [2] is T2, Aurora kinase C (Homo sapiens) (UniProt Q9UQB9).
T2 sequence (whole entry): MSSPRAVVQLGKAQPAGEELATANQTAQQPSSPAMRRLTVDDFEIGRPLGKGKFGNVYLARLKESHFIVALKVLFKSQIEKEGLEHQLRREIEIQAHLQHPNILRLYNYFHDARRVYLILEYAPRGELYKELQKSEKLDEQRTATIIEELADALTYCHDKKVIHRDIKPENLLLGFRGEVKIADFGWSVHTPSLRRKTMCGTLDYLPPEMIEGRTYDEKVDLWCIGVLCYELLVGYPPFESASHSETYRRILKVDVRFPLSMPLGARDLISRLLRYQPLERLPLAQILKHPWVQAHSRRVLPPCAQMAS
In words: Selectivity interaction (Kinase panel (Invitrogen)) EUB0000639a AURKC. The following applies: at 200 nM.

The target of assay [3] is T3, Tyrosine-protein kinase ZAP-70 (Homo sapiens) (UniProt P43403).
T3 sequence (whole entry): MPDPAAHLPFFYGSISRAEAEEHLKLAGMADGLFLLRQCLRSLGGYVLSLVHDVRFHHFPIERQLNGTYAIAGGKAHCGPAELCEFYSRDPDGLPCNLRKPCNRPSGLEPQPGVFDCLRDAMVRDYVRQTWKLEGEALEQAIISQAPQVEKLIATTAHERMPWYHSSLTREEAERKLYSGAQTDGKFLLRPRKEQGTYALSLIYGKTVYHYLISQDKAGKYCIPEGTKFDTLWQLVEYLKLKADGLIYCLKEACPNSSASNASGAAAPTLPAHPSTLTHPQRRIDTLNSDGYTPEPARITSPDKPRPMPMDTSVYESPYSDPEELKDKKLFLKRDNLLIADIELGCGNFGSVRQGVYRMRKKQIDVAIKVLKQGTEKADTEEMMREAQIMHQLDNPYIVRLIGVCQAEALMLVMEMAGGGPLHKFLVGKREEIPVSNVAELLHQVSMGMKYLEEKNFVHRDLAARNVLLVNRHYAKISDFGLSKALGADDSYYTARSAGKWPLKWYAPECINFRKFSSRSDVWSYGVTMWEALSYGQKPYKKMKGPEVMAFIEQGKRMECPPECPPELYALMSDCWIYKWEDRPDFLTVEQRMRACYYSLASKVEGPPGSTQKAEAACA
In words: Selectivity interaction (Millipore kinase profiler) EUB0000124b ZAP70. The following applies: at 10 µM.

For assay [4], the target named is Mitogen-activated protein kinase kinase kinase 20 (Homo sapiens) (UniProt Q9NYL2). The assay is described as follows: Selectivity interaction (KinomeScan (DiscoverX)) EUB0001049a MAP3K20. The note with it: at 1 µM.
Chain of Mitogen-activated protein kinase kinase kinase 20 (Homo sapiens) (Q9NYL2 2-800 limits assumed): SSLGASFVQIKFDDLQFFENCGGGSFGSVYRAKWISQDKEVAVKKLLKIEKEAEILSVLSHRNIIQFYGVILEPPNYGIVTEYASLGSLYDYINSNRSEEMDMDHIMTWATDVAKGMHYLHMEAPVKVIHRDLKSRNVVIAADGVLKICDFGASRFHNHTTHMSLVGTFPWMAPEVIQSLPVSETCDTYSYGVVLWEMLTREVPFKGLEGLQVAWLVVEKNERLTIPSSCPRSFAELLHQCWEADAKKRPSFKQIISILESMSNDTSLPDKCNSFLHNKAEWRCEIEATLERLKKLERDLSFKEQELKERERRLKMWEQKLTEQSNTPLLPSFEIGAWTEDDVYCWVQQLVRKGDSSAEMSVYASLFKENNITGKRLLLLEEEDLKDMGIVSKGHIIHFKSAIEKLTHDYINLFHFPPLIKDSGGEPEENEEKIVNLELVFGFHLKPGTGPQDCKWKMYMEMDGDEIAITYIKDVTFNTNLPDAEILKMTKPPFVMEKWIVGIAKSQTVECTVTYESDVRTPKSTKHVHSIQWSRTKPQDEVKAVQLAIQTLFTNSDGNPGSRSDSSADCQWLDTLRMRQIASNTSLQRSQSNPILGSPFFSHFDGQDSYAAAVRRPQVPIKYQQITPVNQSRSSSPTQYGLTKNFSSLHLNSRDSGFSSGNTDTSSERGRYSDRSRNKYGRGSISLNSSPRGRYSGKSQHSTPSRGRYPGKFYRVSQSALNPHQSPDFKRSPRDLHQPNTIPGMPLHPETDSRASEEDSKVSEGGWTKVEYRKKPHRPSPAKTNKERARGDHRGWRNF
Assay [5] has as its target Mitogen-activated protein kinase kinase kinase 10 (Homo sapiens) (UniProt Q02779). In words: Selectivity interaction (KinomeScan (DiscoverX)) EUB0000092b MAP3K10. The note with it: at 10 µM.

Chain of Mitogen-activated protein kinase kinase kinase 10 (Homo sapiens) (Q02779 whole entry, looked up): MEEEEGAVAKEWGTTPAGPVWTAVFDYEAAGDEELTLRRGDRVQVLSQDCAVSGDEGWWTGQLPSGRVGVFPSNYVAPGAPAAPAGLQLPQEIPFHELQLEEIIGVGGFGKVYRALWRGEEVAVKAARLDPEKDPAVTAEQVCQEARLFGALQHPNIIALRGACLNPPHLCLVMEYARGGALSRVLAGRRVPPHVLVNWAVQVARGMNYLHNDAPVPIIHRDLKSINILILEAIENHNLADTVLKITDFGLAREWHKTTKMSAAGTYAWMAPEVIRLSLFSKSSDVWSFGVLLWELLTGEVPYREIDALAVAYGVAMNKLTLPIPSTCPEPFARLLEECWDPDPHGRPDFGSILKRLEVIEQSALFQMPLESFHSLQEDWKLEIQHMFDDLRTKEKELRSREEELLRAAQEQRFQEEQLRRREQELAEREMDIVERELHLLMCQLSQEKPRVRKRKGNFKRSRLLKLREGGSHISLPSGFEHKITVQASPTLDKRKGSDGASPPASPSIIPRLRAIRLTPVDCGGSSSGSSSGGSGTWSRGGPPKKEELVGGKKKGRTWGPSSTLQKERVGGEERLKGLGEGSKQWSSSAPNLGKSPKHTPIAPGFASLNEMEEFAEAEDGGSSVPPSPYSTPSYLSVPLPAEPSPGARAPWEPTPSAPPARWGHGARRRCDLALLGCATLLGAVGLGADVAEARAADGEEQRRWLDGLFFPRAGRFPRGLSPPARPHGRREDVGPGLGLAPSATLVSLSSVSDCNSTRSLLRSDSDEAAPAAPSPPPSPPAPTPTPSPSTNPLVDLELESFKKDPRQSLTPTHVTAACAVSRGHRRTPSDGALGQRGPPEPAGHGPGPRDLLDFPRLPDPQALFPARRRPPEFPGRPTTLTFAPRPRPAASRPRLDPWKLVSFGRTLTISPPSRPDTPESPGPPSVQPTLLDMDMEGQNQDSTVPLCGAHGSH

On to `CC[C@@H]1[C@H](F)C(=O)N[C@@H]1COc1nccc2cc(C(N)=O)c(OC)cc12` [ZIMLOVISERTIB], for which the % of inhibition came out at 0% in assay [1] and 2.66% in assay [2].

The compound `CC(=O)Nc1cccc(-n2c(=O)n(C3CC3)c(=O)c3c(Nc4ccc(I)cc4F)n(C)c(=O)c(C)c32)c1` showed a % of control in assay [3] of 111%.

The compound `COc1cc(Nc2nc(C)cc(-c3cnn4nc(OC)ccc34)n2)cc(C(F)(F)F)c1` gave a % of control in assay [4] of 77%.

`CCC(=O)N1CCN(c2ccc(-n3c(=O)ccc4cnc5ccc(-c6cnc7ccccc7c6)cc5c43)cc2C(F)(F)F)CC1` yielded a % of control in assay [5] of 99%.
